Source: patent US7737125B2, “LNA antagonists targeting the androgen receptor” (Enzon Pharamaceuticals, Inc., priority 2007, dated 2010)
Strand notation (5' to 3'): a small letter for the sugar, then the base; units joined by * are phosphorothioate-linked, units joined directly phosphodiester-linked; [ ] holds rarer units or linkages, { } end groups; capitals alone tell only the bases. l = locked nucleic acid (LNA); [5mC] = 5-methylcytosine; d = 2'-deoxy (DNA)

Tests used:
[1] = test system: human androgen receptor mRNA; assay: Inhibition of androgen receptor mRNA expression in A549 cells, real-time PCR after transfection; type: cell-based; settings: 16 nM oligonucleotide, AR mRNA normalised to GAPDH, down-regulation relative to mock transfected cells
Experimental: (§1) FIG. 2. Oligonucleotides presented in Table 3 were evaluated for their potential to knockdown the androgen receptor mRNA at concentrations of 1, 4 and 16 nM in A549 cells 24 hours after transfection using Real-time PCR. All results were normalised to GAPDH and inhibition of AR mRNA is shown as percent of untreated control. Results shown are an average of three independent experiments.
A549 The human lung cancer cell line […] was cultured in DMEM (Sigma)+10% fetal bovine serum (FBS)+2 mM Glutamax I+gentamicin (25 μg/ml).
(§2) The cell lines listed in Example 4 were treated with an oligomer using the cationic liposome formulation LipofectAMINE 2000 (Gibco) as transfection vehicle. Cells were seeded in 6-well cell culture plates (NUNC) and treated when 80-90% confluent. Oligomer concentrations used ranged from 1 nM to 16 nM final concentration. Formulation of oligomer-lipid complexes were carried out essentially as described by the manufacturer using serum-free OptiMEM (Gibco) and a final lipid concentration of 5 μg/mL LipofectAMINE 2000. Cells were incubated at 37° C. for 4 hours and treatment was stopped by removal of oligomer-containing culture medium. Cells were washed and serum-containing media was added. After oligomer treatment, cells were allowed to recover for 20 hours before they were harvested for RNA analysis.
(§3) Total RNA was extracted from cells transfected as described above and using the Qiagen RNeasy kit (Qiagen cat. no. 74104) according to the manufacturer's instructions. First strand synthesis was performed using Reverse Transcriptase reagents from Ambion according to the manufacturer's instructions.
(§4) For each sample, the volume of 0.5 •g total RNA was adjusted to 10.8 •l with RNase free H2O and mixed with 2 •l random decamers (50 •M) and 4 •l dNTP mix (2.5 mM each dNTP) and heated to 70° C. for 3 min, after which the samples were rapidly cooled on ice. After cooling the samples on ice, 2 •l 10× Buffer RT, 1 •l MMLV Reverse Transcriptase (100 U/•l) and 0.25 •l RNase inhibitor (10 U/•l) were added to each sample, followed by incubation at 42° C. for 60 min, heat inactivation of the enzyme at 95° C. for 10 min and then cooling of the sample to 4° C.
(§5) The amount of human androgen receptor mRNA in the samples was quantified using the human androgen receptor ABI Prism Pre-Developed TaqMan Assay Reagents (Applied Biosystems cat. no. Hs00171172_m1) according to the manufacturer's instructions.
(§6) Glyceraldehyde-3-phosphate dehydrogenase (GAPDH) mRNA quantity was used as an endogenous control for normalizing any variance in sample preparation.
(§7) The cDNA from the first strand synthesis performed as described in Example 6 was diluted 2-20 times, and analyzed by real time quantitative PCR using Taquman 7500 FAST or 7900 FAST from Applied Biosystems. The primers and probe were mixed with 2× Taqman Fast Universal PCR master mix (2×) (Applied Biosystems Cat. #4364103) and added to 4 μl cDNA to a final volume of 10 μl. Each sample was analysed in duplicate. Standard curves were generated by assaying 2-fold dilutions of a cDNA that had been prepared on material purified from a cell line expressing the RNA of interest. Sterile H2O was used instead of cDNA for the no-template control. PCR program: 95° C. for 30 seconds, followed by 40 cycles of 95° C., 3 seconds, 60° C., 20-30 seconds. Relative quantities of target mRNA were determined from the calculated Threshold cycle using the Applied Biosystems Fast System SDS Software Version 1.3.1.21. or SDS Software Version 2.3.
(§8) Oligonucleotides presented in Table 3 were evaluated for their potential to knock down androgen receptor mRNA expression at concentrations of 1, 4 and 16 nM (see FIGS. 1 and 2).
(§9) The data in Table 3 are presented as percentage down-regulation relative to mock transfected cells at 16 nM. Lower case letters represent DNA monomers, bold, upper case letters represent β-D-oxy-LNA monomers. All cytosine bases in the LNA monomers are 5-methylcytosines. […]

[2] = test system: human androgen receptor mRNA; assay: Inhibition of androgen receptor mRNA expression in MCF7 cells, real-time PCR after transfection; type: cell-based; settings: 16 nM oligonucleotide, AR mRNA normalised to GAPDH, down-regulation relative to mock transfected cells
Experimental: as §1, with “1.” for “2.”, “n-M” for “nM”, “MCF7” for “A549”
MCF7 The human breast cancer cell line MCF7 was cultured in EagleMEM (Sigma)+10% fetal bovine serum (FBS)+2 mM Glutamax I+1×NEAA+gentamicin (25 μg/ml).
as §2, §3, §4, §5, §6, §7, §8, §9

[3] = test system: mouse androgen receptor mRNA; assay: In vivo knock-down of AR mRNA expression in mouse liver (QPCR); settings: nude mice, 100 mg/kg i.v. q3dx4, liver 24 h after last dosing, normalised to mouse GAPDH, relative to saline treated animals
Experimental: Nude mice were dosed i.v. q3dx4 with 100 mg/kg oligonucleotide (group size of 5 mice). The antisense oligonucleotides (SEQ ID:48, SEQ ID:51, SEQ ID:58, SEQ ID:63, SEQ ID:77) were dissolved in phosphate buffered saline. Animals were sacrificed 24 h after last dosing and liver tissue was sampled and stored in RNA later until RNA extraction and QPCR analysis. Total RNA was extracted and AR mRNA expression in liver samples was measured by QPCR as described in Example 7 using a mouse AR QPCR assay (cat. Mm01238475_m1, Applied Biosystems). Results were normalised to mouse GAPDH (cat. no. 4352339E, Applied Biosystems) and knock-own was quantitated relative to saline treated controls. The data in Table 4 are presented as percentage down-regulation relative to saline treated animals.

Substance: 5′-GsCsAscsasasgsgsasgstsgsgsGsAsC-3′ (antisense lG*l[5mC]*lA*dC*dA*dA*dG*dG*dA*dG*dT*dG*dG*lG*lA*l[5mC]) [SEQ ID NO: 47, LNA gapmer antisense oligonucleotide]
- Percent inhibition of Androgen receptor - A549 [1]: 77.7%
- Percent inhibition of Androgen receptor - MCF7 [2]: 83.1%

Substance: 5′-CsAsGsgscsasgsasasgsascsasTsCsT-3′ (antisense l[5mC]*lA*lG*dG*dC*dA*dG*dA*dA*dG*dA*dC*dA*lT*l[5mC]*lT) [SEQ ID NO: 76, LNA gapmer antisense oligonucleotide]
- Percent inhibition of Androgen receptor - A549 [1]: 94.3%
- Percent inhibition of Androgen receptor - MCF7 [2]: 85.9%

Substance: 5′-TsCsCstsgsgsasgststsgsascsAsTsT-3′ (antisense lT*l[5mC]*l[5mC]*dT*dG*dG*dA*dG*dT*dT*dG*dA*dC*lA*lT*lT) [SEQ ID NO: 62, LNA gapmer antisense oligonucleotide]
- Percent inhibition of Androgen receptor - A549 [1]: 93.0%
- Percent inhibition of Androgen receptor - MCF7 [2]: 81.3%

Substance: 5′-CsAsTscscscstsgscststscsasTsAsA-3′ (antisense l[5mC]*lA*lT*dC*dC*dC*dT*dG*dC*dT*dT*dC*dA*lT*lA*lA) [SEQ ID NO: 57, LNA gapmer antisense oligonucleotide]
- Percent inhibition of Androgen receptor - A549 [1]: 88.9%
- Percent inhibition of Androgen receptor - MCF7 [2]: 89.5%

Substance: 5′-TsTsGscsascsasgsasgsastsgsAsTsC-3′ (antisense lT*lT*lG*dC*dA*dC*dA*dG*dA*dG*dA*dT*dG*lA*lT*l[5mC]) [SEQ ID NO: 72, LNA gapmer antisense oligonucleotide]
- Percent inhibition of Androgen receptor - A549 [1]: 90.4%
- Percent inhibition of Androgen receptor - MCF7 [2]: 79.2%

Substance: 5′-GsAsGsasascscsastscscstscsAsCsC-3′ (antisense lG*lA*lG*dA*dA*dC*dC*dA*dT*dC*dC*dT*dC*lA*l[5mC]*l[5mC]) [SEQ ID NO: 44]
- Percent inhibition of Androgen receptor - A549 [1]: 63.8%
- Percent inhibition of Androgen receptor - MCF7 [2]: 80.1%

Substance: 5′-CsAsTscscsasasascstscststsGsAsG-3′ (antisense l[5mC]*lA*lT*dC*dC*dA*dA*dA*dC*dT*dC*dT*dT*lG*lA*lG) [SEQ ID NO: 66, LNA gapmer antisense oligonucleotide]
- Percent inhibition of Androgen receptor - A549 [1]: 95.3%
- Percent inhibition of Androgen receptor - MCF7 [2]: 79.8%

Substance: 5′-CsCsCscstsgsgsascstscsasgsAsTsG-3′ (antisense l[5mC]*l[5mC]*l[5mC]*dC*dT*dG*dG*dA*dC*dT*dC*dA*dG*lA*lT*lG) [SEQ ID NO: 46, LNA gapmer antisense oligonucleotide]
- Percent inhibition of Androgen receptor - A549 [1]: 82.8%
- Percent inhibition of Androgen receptor - MCF7 [2]: 89.4%

Substance: 5′-GsGsAscscsasgsgstsasgscscsTsGsT-3′ (antisense lG*lG*lA*dC*dC*dA*dG*dG*dT*dA*dG*dC*dC*lT*lG*lT) [SEQ ID NO: 45, LNA gapmer antisense oligonucleotide]
- Percent inhibition of Androgen receptor - A549 [1]: 88.2%
- Percent inhibition of Androgen receptor - MCF7 [2]: 89.0%

Substance: 5′-TsTsTsgsascsascsasasgstsgsGsGsA-3′ (antisense lT*lT*lT*dG*dA*dC*dA*dC*dA*dA*dG*dT*dG*lG*lG*lA) [SEQ ID NO: 51, LNA gapmer antisense oligonucleotide]
- Liver (% KD) of AR mRNA expression [3]: 65.0 +/− 12.6%

Substance: 5′-CsTsTsgsgscscscsascststsgsAsCsC-3′ (antisense l[5mC]*lT*lT*dG*dG*dC*dC*dC*dA*dC*dT*dT*dG*lA*l[5mC]*l[5mC]) [SEQ ID NO: 61, LNA gapmer antisense oligonucleotide]
- Percent inhibition of Androgen receptor - A549 [1]: 93.3%
- Percent inhibition of Androgen receptor - MCF7 [2]: 86.7%

Substance: 5′-GsAsAsgststscsastscsasasasGsAsA-3′ (antisense lG*lA*lA*dG*dT*dT*dC*dA*dT*dC*dA*dA*dA*lG*lA*lA) [SEQ ID NO: 68, LNA gapmer antisense oligonucleotide]
- Percent inhibition of Androgen receptor - A549 [1]: 85.6%
- Percent inhibition of Androgen receptor - MCF7 [2]: 88.2%

Substance: 5′-GsCsTststscsastsgscsascsasgsGsA-3′ (antisense lG*l[5mC]*lT*dT*dT*dC*dA*dT*dG*dC*dA*dC*dA*dG*lG*lA) [SEQ ID NO: 67, LNA gapmer antisense oligonucleotide]
- Percent inhibition of Androgen receptor - A549 [1]: 97.0%
- Percent inhibition of Androgen receptor - MCF7 [2]: 83.5%
